# What was measured:
# SNF3-PDO = assay: PDO drug response testing with CDK4/6 inhibitor and PARP inhibitor (CellTiter-Glo 3D cell survival assay); type: cell-based, human; conditions: for growth ability of SNF3-PDO: single drug; for PDO growth ability: SNF3 subtype and the non-SNF3 subtype (legend of FIGs. 31 and 32)
# Procedure: (§1) Briefly, the fresh breast cancer tissue is cut into small pieces using a sterile surgical knife. The tissue was digested and resuspended in 10 mL of TAC buffer, incubated for 3 minutes to remove red blood cells, and passed through a […] cell strainer (Corning). For passaging, 5 ml of harvesting solution (Trevigen, 3700-100-01) was used to digest the basement membrane extract (BME), which was incubated on ice for 1 hour. Subsequently, the organoids were centrifuged at 350 g for 5 minutes, washed in digestion buffer, and centrifuged. Next, 3 mL of TrypLE Express (Invitrogen) was added, and the organoids were incubated at room temperature for 3 minutes and then mechanically dissociated into small cell clusters using a pipette. The organoids were passaged every 2-3 weeks at a dilution ratio of 1:2-3.
# (§2) Drug response testing of triple-negative breast cancer (TNBC) organoids was conducted according to the method of the published paper (Xiao Y, Ma D, Yang YS, Yang F, Ding JH, Gong Y, et al. Comprehensive metabolomics expands precision medicine for triple-negative breast cancer. CELL RES. 2022;32(5):477-90 doi 10.1038/s41422-022-00614-0.). Organoids without undergoing organoid drug treatment were harvested in good condition and digested into single cells. 25 microliters of organoid suspension was added to black cell-repellent surface of a 384-well plate with transparent bottoms (Greiner 781976-SIN) at 1 × 10^3 to 3 × 10^3 cells per well, and cultured for an additional 5-6 days prior to drug treatment. Organoids were co-cultured with the drug for 1 week and then tested for survival. According to the manufacturer's instructions, organoid cell survival rate was assessed by the CellTiter-Glo 3D cell survival assay (Promega, G9683).
# In order to gain an in-depth understanding of the biological characteristics of the SNF3 subtype, low-concentration 4-hydroxytamoxifen was used to induce PDO over an extended period to establish a model for studying acquired resistance to endocrine therapy (Xi Jin, Yi-Fan Zhou, Ding Ma, Shen Zhao, Cai-Jin Lin, Yi Xiao, et al. Integrative Molecular Classification of HR+/HER2- Breast Cancer Guides Precision Treatment. Nature Genetics under minor revision. 2023.02.26.).
# In view of the high enrichment of SNF3 tumors in homologous recombination deficiency score, chromosomal instability, and cell cycle activity, the response of SNF3 PDOs to CDK4/6 inhibitors and PARP inhibitors was tested. […] In addition, regardless of BRCA mutation, the homologous recombination deficiency score of SNF3 tumors was much higher (FIG. 35). The above results indicated the therapeutic susceptibility of the SNF3 subtype to CDK4/6 inhibitors and PARP inhibitors; therefore, CDK4/6 inhibitors and PARP inhibitors or combinations thereof may be potential accurate treatment strategies for SNF3 tumors.
# SNF4 tumors = assay: PDO drug sensitivity testing of tyrosine kinase inhibitors; type: cell-based, human; conditions: for IC50: SNF4 tumors compared with other subtypes, PDO
# Procedure: as §1, §2
# Next, based on the identified key receptors, 12 tyrosine kinase inhibitors were selected to construct a "tyrosine kinase inhibitor combination," including tyrosine kinase inhibitors targeting the ErbB family (afatinib, lapatinib, pyrotinib), the PDGFR family (axitinib, sunitinib), the VEGFR family (foretinib, apatinib), the TAM receptor (sitravatinib), as well as some multi-target tyrosine kinase inhibitors (sorafenib, vandetanib, regorafenib, famitinib). The combination is used for PDO drug sensitivity testing to verify the tyrosine kinase inhibitor most sensitive to SNF4 tumors (FIG. 38). […] Combining the drug sensitivity results of the above 12 tyrosine kinase inhibitors and the targets of the above four drugs, VEGFR and PDGFR signaling were preliminarily identified as potential therapeutic vulnerabilities of SNF4 tumors.
# [1] = system: signaling pathway activated by PDGF in SNF4 tumor; assay: PDGF-activated signaling pathway changes after tyrosine kinase inhibitor treatment; type: cell-based, human
# [2] = system: SNF4 subtype cancer-associated fibroblasts (CAF); assay: Efficacy on patient-derived cancer cells co-cultured with fibroblasts; type: cell-based, human; conditions: sorafenib (1 µM)
# Procedure: (F-G) The efficacy of sorafenib (1 µM) on patient-derived cancer cells co-cultured with fibroblasts. Scale bar: 100 micrometers. Cancer cells are treated with sorafenib three times. One representative experiment is shown. The experiment is repeated three times, and the results are similar.
# four subtypes of PDOs = assay: PDO drug response testing of traditional endocrine therapies (CellTiter-Glo 3D cell survival assay); type: cell-based, human; conditions: compared among four subtypes of PDOs (n = 88)
# Procedure: as §1, §2
# The sensitivity of four subtypes of PDOs (n = 88) to three traditional endocrine therapies (estrogen deprivation, 4-hydroxytamoxifen (4OHtam), and fulvestrant) was compared on a PDO drug testing platform. […] In order to investigate the potential mechanism of SNF1 tumor sensitivity to endocrine therapy, the endocrine therapy-related pathways in the multi-omics data from Fudan University Shanghai Cancer Center were analyzed. […] In addition, the expression of endocrine therapy resistance pathways was also compared among the four subtypes.
# [3] = system: advanced HR+/HER2- breast cancer; assay: Real-world retrospective clinical cohort of advanced HR+/HER2- breast cancer; type: in vivo, human; conditions: SNF3 and SNF4 subtypes; advanced cohort of FUSCC, n = 277; p = 0.033
# Description: Frequency tables and summary statistics were used to characterize data distribution. Wilcoxon test and Kruskal-Wallis test were used to compare continuous variables and categorical variables, and Pearson chi-square test and Fisher's exact test were used to compare unordered categorical variables. Survival curves were established using the Kaplan-Meier product-limit method and compared with the log-rank test to obtain RFS and PFS. RFS was defined as the time from diagnosis to the first recurrence or diagnosis of contralateral breast cancer. PFS was defined as the interval from the start of treatment to disease progression or death due to any cause (whichever occurs first), or to the time of the last PFS assessment for patients with progression-free survival. Univariate and multivariate Cox proportional hazards regression models were constructed to evaluate the hazard ratio (HR) and the corresponding 95% confidence interval (CI). All analyses were performed using R software package version 3.6.1 (https://cran.r-project.org/).
# For deeper insights into the landscape of metastatic HR+/HER2- breast cancer, we constructed a real-world cohort of patients with advanced HR+/HER2- breast cancer from FUSCC and invited other three centers to participate in our real-world study. […] Their tumor progression were evaluated according to RECIST v1.1.
molecule,measurement,setting,value
O=C(c1cc(Cc2n[nH]c(=O)c3ccccc23)ccc1F)N1CCN(C(=O)C2CC2)CC1 [olaparib],growth ability of SNF3-PDO,SNF3-PDO,significantly inhibited
same,PDO growth ability,SNF3-PDO,significantly inhibited
CNC(=O)c1cc(Oc2ccc(NC(=O)Nc3ccc(Cl)c(C(F)(F)F)c3)cc2)ccn1 [sorafenib],IC50,SNF4 tumors,lower than that of other subtypes
same,signaling pathway activated by PDGF,[1],significantly downregulated
same,sensitivity of SNF4 subtype cancer-associated fibroblasts (CAF),[2],sensitive
CNC(=O)c1cc(Oc2ccc(NC(=O)Nc3ccc(Cl)c(C(F)(F)F)c3)c(F)c2)ccn1 [regorafenib],IC50,SNF4 tumors,lower than that of other subtypes
same,cell viability of SNF4 tumors,"SNF4 tumors; after treatment, Wilcoxon test",significantly decreased
C[C@]12CC[C@@H]3c4ccc(O)cc4C[C@@H](CCCCCCCCC[S+]([O-])CCCC(F)(F)C(F)(F)F)[C@H]3[C@@H]1CC[C@@H]2O (some centres unmarked) [fulvestrant],survival rate,four subtypes of PDOs; SNF1-PDO,lowest survival rate
same,survival rate,four subtypes of PDOs; SNF4-PDO,relatively higher survival rate
same,progression-free survival (PFS),[3],worse progression-free survival
"CCN1CCN(Cc2ccc(Nc3ncc(F)c(-c4cc(F)c5nc(C)n(C(C)C)c5c4)n3)nc2)CC1 [abemaciclib, N-[5-[(4-ethyl-1-piperazinyl)methyl]-2-pyridinyl]-5-fluoro-4-[4-fluoro-2-methyl-1-(1-methylethyl)-1H-benzimidazol-6-yl]-2-pyrimidinamine]",growth ability of SNF3-PDO,SNF3-PDO,significantly inhibited
same,PDO growth ability,SNF3-PDO,significantly inhibited
4-hydroxytamoxifen,survival rate,four subtypes of PDOs; SNF1-PDO,lowest survival rate
same,survival rate,four subtypes of PDOs; SNF4-PDO,relatively higher survival rate
same,sensitivity to endocrine therapy,"SNF3-PDO; SNF3-PDO after long-term induction with low-concentration 4-hydroxytamoxifen, unlike other subtypes",less sensitive to endocrine therapy
CCN(CC)CCN1CCc2[nH]c(/C=C3\C(=O)Nc4ccc(F)cc43)c(C)c2C1=O [famitinib],IC50,SNF4 tumors,lower than that of other subtypes
same,signaling pathway activated by PDGF,[1],significantly downregulated

# Reference: patent EP4730355A1, “TYPING SYSTEM AND METHOD FOR HR-POSITIVE/HER2-NEGATIVE BREAST CANCER” (Lumitype Medical (Huzhou) Co., Ltd., priority 2023, dated 2024)
